Reference: patent US3985764A, “Production of fused oxazoline azetidinones” (Queen's University, priority 1974, dated 1976)

System: S. lutea
Test: antibacterial activity vs. S. lutea (plate assay)
Assay type: cell-based
Settings: versus S. lutea

CC1(C)O[C@@H]2[C@H](N3C(=O)c4ccccc4C3=O)C(=O)N2[C@H]1C(=O)O [6-phthalimido oxapenicillin]
antibacterial activity relative to phthalimidopenicillin: one-tenth the level of phthalimidopenicillin
